For four molecules, inhibition results are on record in patent publication US11492345B2, “Compounds and their methods of use” (Praxis Precision Medicines, Inc., priority 2017, dated 2022).

T1 sequence (Q9UQD0 whole entry): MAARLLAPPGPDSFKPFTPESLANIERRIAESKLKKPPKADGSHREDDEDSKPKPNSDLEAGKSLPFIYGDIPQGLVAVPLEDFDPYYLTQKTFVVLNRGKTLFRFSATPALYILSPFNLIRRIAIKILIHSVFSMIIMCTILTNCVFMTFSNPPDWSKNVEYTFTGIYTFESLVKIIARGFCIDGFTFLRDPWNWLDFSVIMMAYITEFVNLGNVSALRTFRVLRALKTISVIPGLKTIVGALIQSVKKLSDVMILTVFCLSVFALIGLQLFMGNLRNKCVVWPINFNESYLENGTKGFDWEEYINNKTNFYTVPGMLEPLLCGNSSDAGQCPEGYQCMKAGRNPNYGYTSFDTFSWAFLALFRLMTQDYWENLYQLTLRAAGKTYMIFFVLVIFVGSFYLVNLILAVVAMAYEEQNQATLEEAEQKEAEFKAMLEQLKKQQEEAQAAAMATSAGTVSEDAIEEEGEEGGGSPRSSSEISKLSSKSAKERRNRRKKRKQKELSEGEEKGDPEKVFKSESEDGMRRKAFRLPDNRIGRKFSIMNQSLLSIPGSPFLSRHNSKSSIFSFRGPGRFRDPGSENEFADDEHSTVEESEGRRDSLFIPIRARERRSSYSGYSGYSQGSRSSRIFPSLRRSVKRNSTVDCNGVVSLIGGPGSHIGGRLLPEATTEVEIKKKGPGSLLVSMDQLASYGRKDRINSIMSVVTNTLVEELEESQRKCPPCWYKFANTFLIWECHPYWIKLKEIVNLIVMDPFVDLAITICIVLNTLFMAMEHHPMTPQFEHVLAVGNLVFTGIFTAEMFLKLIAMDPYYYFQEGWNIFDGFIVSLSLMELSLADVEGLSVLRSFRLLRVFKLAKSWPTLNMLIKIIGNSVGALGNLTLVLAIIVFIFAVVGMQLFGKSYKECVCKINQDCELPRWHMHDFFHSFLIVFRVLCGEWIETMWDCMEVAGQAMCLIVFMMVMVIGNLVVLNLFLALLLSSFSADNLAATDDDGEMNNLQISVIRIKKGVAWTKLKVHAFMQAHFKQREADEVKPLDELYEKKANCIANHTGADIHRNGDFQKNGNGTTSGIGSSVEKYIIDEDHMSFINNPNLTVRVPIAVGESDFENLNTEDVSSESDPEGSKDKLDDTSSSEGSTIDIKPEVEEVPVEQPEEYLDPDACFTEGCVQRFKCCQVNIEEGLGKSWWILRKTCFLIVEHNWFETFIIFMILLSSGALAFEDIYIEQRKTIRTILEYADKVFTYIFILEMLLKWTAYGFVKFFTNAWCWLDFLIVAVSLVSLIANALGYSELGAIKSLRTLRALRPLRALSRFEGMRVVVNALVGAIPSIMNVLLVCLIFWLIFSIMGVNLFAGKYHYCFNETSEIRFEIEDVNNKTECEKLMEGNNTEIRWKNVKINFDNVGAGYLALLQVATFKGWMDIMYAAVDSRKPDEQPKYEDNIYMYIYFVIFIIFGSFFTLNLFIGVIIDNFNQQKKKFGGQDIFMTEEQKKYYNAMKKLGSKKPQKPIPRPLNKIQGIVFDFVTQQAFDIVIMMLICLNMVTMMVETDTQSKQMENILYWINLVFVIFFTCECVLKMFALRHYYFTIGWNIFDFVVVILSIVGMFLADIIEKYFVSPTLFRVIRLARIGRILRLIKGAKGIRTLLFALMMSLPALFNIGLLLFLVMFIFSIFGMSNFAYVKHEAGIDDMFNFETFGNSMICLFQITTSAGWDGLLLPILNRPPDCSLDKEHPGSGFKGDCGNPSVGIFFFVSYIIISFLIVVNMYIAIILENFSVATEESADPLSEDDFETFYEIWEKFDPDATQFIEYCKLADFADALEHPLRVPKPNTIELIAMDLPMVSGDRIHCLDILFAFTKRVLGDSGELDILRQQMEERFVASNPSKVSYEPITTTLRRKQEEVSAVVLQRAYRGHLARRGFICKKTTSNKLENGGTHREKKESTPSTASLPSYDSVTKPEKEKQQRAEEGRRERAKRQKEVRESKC

The experiment concerns the target T1, human Nav1.6 (hNav1.6) (Homo sapiens, UniProt Q9UQD0).
T1 construct: expressed in transfected cells; host or cells: HEK-293 (G418 selection)
Kind of experiment: Modulation of late sodium current (INaL), PatchXpress electrophysiology. The following applies: HEK293; 1 μM compound; HEK-293 cells expressing recombinant human Nav channel; late current evoked by 300 nM ATX-II; steady-state inhibition; read-out: INaL v1.6 (1 μM, % Inhibition). The experiment is classed as cell-based. The procedure: Functional characterization of exemplary compounds to modulate INaL expressed by the Nav1.6 voltage-gated sodium channel was accomplished using the PatchXpress™ high throughput electrophysiology platform (Molecular Devices, Sunnyvale, Calif.). HEK-293 cells expressing recombinant, human Nav1.6 (hNav1.6) were grown in DMEM/high-glucose Dulbecco's modified, 10% FBS, 2 mM sodium pyruvate, 10 mM HEPES and 400 μg/mL G418. Cells were grown to 50%-80% confluency prior to harvesting. Trypsinized cells were washed, allowed to recover for 1 hour and then resuspended in extracellular recording solution at a concentration of 1×10^6 cells/ml. The onboard liquid handling facility of the PatchXpress was used for dispensing cells and applying test compounds. Nav late currents were evoked by the application of 300 nM ATX-II. INaL was evoked by depolarizing pulses to 0 mV for 200 ms from a non-inactivating holding potential (e.g., −120 mV) at a frequency of 0.1 Hz. INaL amplitude and stability were determined by analyzing the mean current amplitude over the final 20 ms of the test pulse. […] Percent steady-state inhibition of INaL was calculated as: [(INaL_compound)/(INaL_control)]*100, where INaL_compound and INaL_control represent INaL recorded in the presence or absence of compound, respectively.
Regarding `Cn1cnnc1Cn1c(=O)oc2ccc(-c3ccc(OC(F)(F)F)cc3)nc21` [Compound 163], the inhibition at 1 µM was under 30%.
Next, `Cn1ncnc1Cn1c(=O)oc2ccc(-c3ccc(OC(F)(F)F)cc3)nc21` [Compound 164]: 30 to 70%; `O=c1oc2ccc(-c3ccc(OC(F)(F)F)cc3)nc2n1Cc1cn[nH]c1` [Compound 165]: 30 to 70%.
Next, `Cc1n[nH]cc1Cn1c(=O)oc2ccc(-c3ccc(OC(F)(F)F)cc3)nc21` [Compound 167]: under 30%.
